Experimental data taken from ChEMBL document CHEMBL1201862, “PubChem BioAssay data set” (2004).
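1) Cells in 96-well plates. 2) Compound, 48 h, 5 concentrations. 3) Linear interpolation between surrounding doses. 4) Unreached endpoint = highest concentration. GI50 marks 50% less growth.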 The source made the active and inactive calls. Rule as the data show it: active = GI50 up to about 1.1 µM and inactive = higher.

Tests used:
Assay in all cases: NCI tumour cell line growth inhibition, 48 h
CCRF-CEM = system: CCRF-CEM
EKVX = system: EKVX
HCC 2998 = system: HCC 2998
HCT-15 = system: HCT-15
IGROV-1 = system: IGROV-1
K562 = system: K562
KM12 = system: KM12
MOLT-4 = system: MOLT-4
Malme-3M = system: Malme-3M
NCI-H23 = system: NCI-H23
NCI-H460 = system: NCI-H460
OVCAR-8 = system: OVCAR-8
RPMI-8226 = system: RPMI-8226
SF-268 = system: SF-268
SK-MEL-28 = system: SK-MEL-28
SK-MEL-2 = system: SK-MEL-2
SK-MEL-5 = system: SK-MEL-5
SK-OV-3 = system: SK-OV-3
SW-620 = system: SW-620
U-251 = system: U-251

| SMILES | GI50 (CCRF-CEM) | GI50 (EKVX) | GI50 (HCC 2998) | GI50 (HCT-15) [µM] | GI50 (IGROV-1) | GI50 (K562) | GI50 (KM12) | GI50 (MOLT-4) | GI50 (Malme-3M) | GI50 (NCI-H23) | GI50 (NCI-H460) | GI50 (OVCAR-8) | GI50 (RPMI-8226) | GI50 (SF-268) | GI50 (SK-MEL-28) | GI50 (SK-MEL-2) | GI50 (SK-MEL-5) | GI50 (SK-OV-3) | GI50 (SW-620) | GI50 (U-251) |
| --- | --- | --- | --- | --- | --- | --- | --- | --- | --- | --- | --- | --- | --- | --- | --- | --- | --- | --- | --- | --- |
| [O-][S+]1[C@H](c2ccccc2)c2c(-c3ccccc3)sc(-c3ccccc3)c2[C@@H]1c1ccccc1 (some centres not stated) | 89.7 µM (inactive) | 0.286 µM (active) | > 100 µM (inactive) | 7.1 | > 100 µM (inactive) | 6.44 µM (inactive) | 12.5 µM (inactive) | 4.75 µM (inactive) | 23.4 µM (inactive) | 6.55 µM (inactive) | 17.1 µM (inactive) | 8.75 µM (inactive) | 6.04 µM (inactive) | > 100 µM (inactive) | 96.6 µM (inactive) | 32.7 µM (inactive) | 6.15 µM (inactive) | > 100 µM (inactive) | 13.2 µM (inactive) | 9.44 µM (inactive) |
| CCOc1ccc2nc(NC(=O)C(=O)C(C(=O)c3ccccc3F)C3OC(=O)c4ccccc43)sc2c1 (configuration not stated) | 12.3 µM (inactive) | 19.1 µM (inactive) | 15.9 µM (inactive) | 14.5 | 25.6 µM (inactive) | 21.8 µM (inactive) | 0.723 µM (active) | 10.3 µM (inactive) |  |  | 17.5 µM (inactive) | 16 µM (inactive) | 19.1 µM (inactive) | 16.1 µM (inactive) | 24.4 µM (inactive) | 19.6 µM (inactive) | 15.9 µM (inactive) | 24.1 µM (inactive) | 19.3 µM (inactive) | 11.1 µM (inactive) |
| O=C1C2=C(c3ccccc31)C(c1ccccc1Cl)N1C(=O)CSC1=N2 (configuration not stated) | 44.3 µM (inactive) | > 100 µM (inactive) | > 100 µM (inactive) | 83.4 | > 100 µM (inactive) | 50.4 µM (inactive) | > 100 µM (inactive) | 33.9 µM (inactive) | > 100 µM (inactive) | 85.7 µM (inactive) | > 100 µM (inactive) | > 100 µM (inactive) | 39.8 µM (inactive) | 56.2 µM (inactive) | 49.3 µM (inactive) | > 100 µM (inactive) | > 100 µM (inactive) | > 100 µM (inactive) | > 100 µM (inactive) | > 100 µM (inactive) |
| CC(=O)O[C@@H]1CN(S(=O)(=O)c2ccc(C)cc2)C[C@@H]1C1CCCCC1 | 37.8 µM (inactive) | 19.9 µM (inactive) | 42.5 µM (inactive) | 32.6 | 17.3 µM (inactive) | 45.7 µM (inactive) | 16.1 µM (inactive) | 25.5 µM (inactive) |  | 38.5 µM (inactive) | 34.5 µM (inactive) | 24.8 µM (inactive) | 25.5 µM (inactive) | 16.8 µM (inactive) | 14.5 µM (inactive) | 17 µM (inactive) | 19.2 µM (inactive) | 62.2 µM (inactive) | 20.4 µM (inactive) | 17.7 µM (inactive) |
| Cn1c(=O)c2nc(N3CCCCC3)cnc2n(C)c1=O | > 100 µM (inactive) | > 100 µM (inactive) | > 100 µM (inactive) | > 100 | > 100 µM (inactive) | > 100 µM (inactive) | > 100 µM (inactive) | > 100 µM (inactive) | > 100 µM (inactive) | > 100 µM (inactive) | > 100 µM (inactive) | > 100 µM (inactive) | > 100 µM (inactive) | > 100 µM (inactive) | > 100 µM (inactive) |  | > 100 µM (inactive) | > 100 µM (inactive) | > 100 µM (inactive) | > 100 µM (inactive) |
| O=C(O)CN1CCN(CC(=O)O)CCN(CC(=O)O)CC1 | 3.91 µM (inactive) | 59.2 µM (inactive) | 3.15 µM (inactive) | 4.53 | 4.85 µM (inactive) | 2.31 µM (inactive) | 5.81 µM (inactive) | 4.71 µM (inactive) | > 28.7 µM (inactive) | 28.6 µM (inactive) | 3.49 µM (inactive) | 4.07 µM (inactive) | 5.36 µM (inactive) | 23.6 µM (inactive) | > 72.1 µM (inactive) | > 43.3 µM (inactive) | 2.79 µM (inactive) | 8.38 µM (inactive) | 8.47 µM (inactive) | 16.4 µM (inactive) |
| CO[C@H]1ON=C(c2c(C)cc(C)cc2C)[C@@H]1C1(c2ccccc2)ON=C(c2c(C)cc(C)cc2C)O1 (some centres not stated) | > 100 µM (inactive) | > 100 µM (inactive) | > 100 µM (inactive) | > 10 | > 100 µM (inactive) | > 100 µM (inactive) | > 100 µM (inactive) | 87.1 µM (inactive) | > 100 µM (inactive) | > 100 µM (inactive) | > 100 µM (inactive) | > 100 µM (inactive) | 37.8 µM (inactive) | > 100 µM (inactive) | > 100 µM (inactive) | > 100 µM (inactive) |  | > 100 µM (inactive) | > 100 µM (inactive) | > 100 µM (inactive) |
| C=CCn1c(=O)c(C(=O)Nc2nc(C34CC5CC(CC(C5)C3)C4)cs2)c(O)c2ccccc21 | 37.3 µM (inactive) | 30.5 µM (inactive) | 37.5 µM (inactive) | 21.5 | 33.1 µM (inactive) | 15.1 µM (inactive) | 30.1 µM (inactive) | 27.4 µM (inactive) | 26 µM (inactive) | 34.3 µM (inactive) | 32.9 µM (inactive) | 82.8 µM (inactive) | 20.1 µM (inactive) | > 10 µM (inactive) | 63 µM (inactive) |  | 34.4 µM (inactive) |  | 23.5 µM (inactive) | 50.2 µM (inactive) |
| O=C(O)c1ccc([N+](=O)[O-])c2cc3cnccc3nc12 | 2.31 µM (inactive) |  | 22.3 µM (inactive) | 20.1 | 34.7 µM (inactive) | 5.78 µM (inactive) | 22.4 µM (inactive) | 3.91 µM (inactive) | 15.2 µM (inactive) | 24.6 µM (inactive) | 38.2 µM (inactive) | 22.4 µM (inactive) | 39.7 µM (inactive) |  | 18.6 µM (inactive) | 17.9 µM (inactive) | 19.1 µM (inactive) | 56.9 µM (inactive) |  | 19.9 µM (inactive) |
| C=C(/C=C/C=C(\C)CCC=C(C)C)[C@@H]1CC[C@]2([C@H](CCCO)/C(=C(/C)C=O)CC[C@]2(C)O)[C@@H]1O | 15.8 µM (inactive) | 22.4 µM (inactive) | 20.9 µM (inactive) | 19.4 | 32.2 µM (inactive) | 11.2 µM (inactive) | 1.41 µM (inactive) | 7.62 µM (inactive) | 11.8 µM (inactive) | 19.5 µM (inactive) | 9.71 µM (inactive) | 20.6 µM (inactive) |  | 19.2 µM (inactive) | 15.1 µM (inactive) | 20.2 µM (inactive) | 22.6 µM (inactive) | > 100 µM (inactive) | 16.3 µM (inactive) | 14.9 µM (inactive) |
| NC(CSC1(c2ccc(Cl)cc2)c2ccccc2-c2ccccc21)C(=O)O (configuration not stated) | 29.1 µM (inactive) | 67.1 µM (inactive) |  | 21.6 | 13.5 µM (inactive) | 26.2 µM (inactive) | 24.1 µM (inactive) | 20 µM (inactive) | 19.6 µM (inactive) | 19.1 µM (inactive) | 18.1 µM (inactive) | 17.7 µM (inactive) | 12.3 µM (inactive) | 20.5 µM (inactive) | > 100 µM (inactive) | 20.9 µM (inactive) | 16.2 µM (inactive) | 25.1 µM (inactive) | 42.6 µM (inactive) | 15.8 µM (inactive) |
| O=C1C(Cl)N(c2ccccc2Cl)C1c1c[nH]c2ccccc12 (configuration not stated) | > 100 µM (inactive) | > 100 µM (inactive) |  |  | > 100 µM (inactive) | > 100 µM (inactive) | > 100 µM (inactive) | > 100 µM (inactive) | > 100 µM (inactive) | > 100 µM (inactive) | > 100 µM (inactive) | > 100 µM (inactive) | > 100 µM (inactive) | > 100 µM (inactive) | > 100 µM (inactive) | > 100 µM (inactive) | > 100 µM (inactive) | > 100 µM (inactive) | > 100 µM (inactive) | > 100 µM (inactive) |
| CC1(C)CC[C@]2(C(=O)O)CC[C@]3(C)C(=CC[C@@H]4[C@@]5(C)CC[C@@H]6OC(C)(C)OC[C@@]6(C)[C@@H]5CC[C@]43C)[C@H]2C1 | 15.4 µM (inactive) | 5.08 µM (inactive) | 13.2 µM (inactive) | 2.87 | 11.4 µM (inactive) | 14.9 µM (inactive) |  | 11.5 µM (inactive) | 12.6 µM (inactive) | 3.91 µM (inactive) | 5.46 µM (inactive) | 7.64 µM (inactive) | 6 µM (inactive) | 8.04 µM (inactive) | 14.4 µM (inactive) | 17.3 µM (inactive) |  | 17.1 µM (inactive) | 14.5 µM (inactive) | 5.89 µM (inactive) |
| O=c1c2cccnc2oc2c(Cl)cc(-c3nnn[nH]3)cc12 | > 100 µM (inactive) | > 100 µM (inactive) | > 100 µM (inactive) | > 100 | > 100 µM (inactive) | > 100 µM (inactive) | > 100 µM (inactive) |  | > 100 µM (inactive) | > 100 µM (inactive) |  | > 100 µM (inactive) |  | > 100 µM (inactive) | > 100 µM (inactive) | > 100 µM (inactive) | > 100 µM (inactive) | > 100 µM (inactive) | > 100 µM (inactive) |  |
| Cc1cn(Cc2cn(CC3OC(n4cc(C)c(=O)[nH]c4=O)CC3O)nn2)c(=O)[nH]c1=O (configuration not stated) | > 100 µM (inactive) | > 100 µM (inactive) | > 100 µM (inactive) | > 100 |  |  | > 100 µM (inactive) | > 100 µM (inactive) | > 100 µM (inactive) | > 100 µM (inactive) |  | > 100 µM (inactive) | > 100 µM (inactive) | > 100 µM (inactive) | > 100 µM (inactive) | > 100 µM (inactive) | > 100 µM (inactive) | > 100 µM (inactive) | > 100 µM (inactive) | > 100 µM (inactive) |
